Measured values: patent US20250346592A1 (Celgene Corporation, priority 2022, published 2025)

Legend:
hPAD4 enzyme [1] = biological target: T1, hPAD4 enzyme (Homo sapiens (Human), UniProt Q9UM07); experiment: RFMS1 assay (RapidFire mass spectrometry, BAEE substrate); type: biochemical; conditions: 5 nM hPAD4, 250 μM BAEE, 30 min preincubation at 37° C., 90 min reaction; read-out: RFMS 1 IC50
Protocol: Compounds were solubilized in 100% DMSO to achieve a 10 mM compound concentration. Compound stock solutions were stored at RT. A series of dilutions were prepared in DMSO and mixed 8 times with 20 μL mixing volume. Final top concentration of compound in the assay is 50 μM. Final assay conditions were as follows: • Reaction volume: 26 μl • Assay buffer: 25 mM hepes, pH 7.5, 5 mM NaCl, 1 mM DTT, 0.2 mg/ml BSA, 0.01% CHAPS, 50 µM Calcium, and 5 μM TPEN • Final concentrations: 5 nM hPAD4 enzyme, 250 µM BAEE, and 0.5% DMSO • Total incubation time: 30 mins compound and enzyme preincubation at 37° C., 90 min enzyme/substrate reaction, 30 min reaction with phenyl glyoxal at 37° C. • Stop solution: 40 μl 5% TCA in ACN • 0.13 μL of compound solution was added to 13 μL of 10 nM PAD4 in assay buffer. After […] min 13 μl of 500 µM of BAEE was added in 25 mM hepes, pH 7.5, 5 mM NaCl, 1 mM DTT, 0.2 mg/ml BSA, 0.01% CHAPS, 50 μM Calcium, 5 μM TPEN was added and the reaction incubated for 90 min at 37° C. The enzymatic reaction was quenched by addition of 15 μl of 6.1N TCA, 100% Final Concentration is 20%, 35 μl of 8.5 mM phenyl glyoxal (final concentration 4 mM) is then added and the reaction is incubated for 30 min at 37° C.
After 30 minutes the plates are spun down to remove all precipitate. The enzyme reaction was quenched with an equal volume of methanol containing internal standard (modified citrulline). Samples were loaded onto the Rapid Fire RF300 system (Agilent) wherein they were first sipped for 1000 ms and then directly loaded to a C18 separations cartridge using a mixture of acetonitrile containing 0.01% formic acid for 3000 ms desalting. The flow rate of the mobile phase was 1.5 ml/min. Once the samples were eluted from the cartridge, a mobile phase of acetonitrile containing 0.01% formic acid was used to move the samples into the mass spectrometer for 4000 ms at a flow rate of 1.25 ml/min/Sciex API5500 triple quadrupole mass spectrometer (Applied Biosystems) equipped with ESI was used to analyze the peptidyl citrulline and internal standard ions.
MRM transition of product and internal standard were monitored at m/z 424.5 to 350.4 and m/z 293 to 247 respectively. The dwell time for each transition was set at 200 ms, and the ESI voltage was used at 5500 with a source temperature of 400° C. Extracted ion peaks for each transition were integrated using the Rapid Fire Integrator software. Peak area of analyte was normalized with internal standard.).
Compounds having an activity designated as “A” provided an IC50≤10 nM; compounds having an activity designated as “B” provided an IC50 11-100 nM; compounds having an activity designated as “C” provided an IC50 101-500 nM; compounds having an activity designated as “D” provided an IC50 501-1000 nM; compounds having an activity designated as “E” provided an IC50>1000 nM.

hPAD4 enzyme [2] = biological target: T1, hPAD4 enzyme; experiment: RFMS2 assay (RapidFire mass spectrometry, TSTGGRQGSHH peptide substrate); type: biochemical; conditions: 35 nM recombinant human PAD4, 500 μM TSTGGRQGSHH peptide, 30 minutes at room temperature; read-out: RFMS 2 IC50
How it was run: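 Recombinant human PAD4 (35 nM) with 500 μM TSTGGRQGSHH peptide in HEPES pH 7.4, 200 mM NaCl, 2 mM CaCl2, 5 mM DTT, 1.2% DMSO, 30 min at room temperature; 3-fold compound series, top 20 μM. Quenched with formic acid; substrate and citrullinated product quantified by RapidFire MRM mass spectrometry for IC50.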

T1 sequence (Q9UM07 whole entry): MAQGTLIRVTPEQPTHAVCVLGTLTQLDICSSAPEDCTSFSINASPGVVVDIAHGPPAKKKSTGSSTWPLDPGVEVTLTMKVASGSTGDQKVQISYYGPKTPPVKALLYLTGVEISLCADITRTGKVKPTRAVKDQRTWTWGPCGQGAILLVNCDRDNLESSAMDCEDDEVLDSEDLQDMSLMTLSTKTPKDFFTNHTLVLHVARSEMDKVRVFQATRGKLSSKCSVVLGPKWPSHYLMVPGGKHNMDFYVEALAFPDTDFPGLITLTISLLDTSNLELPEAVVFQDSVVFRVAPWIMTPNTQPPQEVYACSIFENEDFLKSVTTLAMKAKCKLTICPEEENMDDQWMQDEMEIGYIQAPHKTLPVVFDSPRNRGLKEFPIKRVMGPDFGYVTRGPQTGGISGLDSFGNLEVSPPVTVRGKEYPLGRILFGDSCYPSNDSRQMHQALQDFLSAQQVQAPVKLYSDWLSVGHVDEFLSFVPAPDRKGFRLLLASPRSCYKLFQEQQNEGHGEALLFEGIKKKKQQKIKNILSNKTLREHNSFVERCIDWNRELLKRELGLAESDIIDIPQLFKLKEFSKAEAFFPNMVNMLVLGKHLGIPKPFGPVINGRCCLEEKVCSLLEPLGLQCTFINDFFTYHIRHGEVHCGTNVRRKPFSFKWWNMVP

| SMILES | IC50 (hPAD4 enzyme [1]) | IC50 (hPAD4 enzyme [2]) |
| --- | --- | --- |
| CN[C@H](C)CN1CCc2cc3c(cc2C1=O)nc(-c1cc2ccccc2n1CC1CC1)n3C [Example 1, (R)-2-(1-(cyclopropylmethyl)-1H-indol-2-yl)-1-methyl-6-(2-(methylamino)propyl)-1,6,7,8-tetrahydro-5H-imidazo[4,5-g]isoquinolin-5-one] | 501 to 1000 nM | 101 to 500 nM |
| C[C@H](CN1CCc2cc3c(cc2C1=O)nc(-c1cc2ccccc2n1CC1CC1)n3C)NCCF [Example 3, (R)-2-(1-(cyclopropylmethyl)-1H-indol-2-yl)-6-(2-((2-fluoroethyl)amino)propyl)-1-methyl-1,6,7,8-tetrahydro-5H-imidazo[4,5-g]isoquinolin-5-one] | > 1000 nM | > 1000 nM |
| C[C@@H](N)CN1CCc2cc3c(cc2C1=O)nc(-c1cc2ccccc2n1CC1CC1)n3C [Example 5, (R)-6-(2-aminopropyl)-2-(1-(cyclopropylmethyl)-1H-indol-2-yl)-1-methyl-1,6,7,8-tetrahydro-5H-imidazo[4,5-g]isoquinolin-5-one] | 101 to 500 nM | 101 to 500 nM |
| Cn1c(-c2cc3ccccc3n2CC2CC2)nc2cc3c(cc21)CCN(CC(C)(C)N)C3=O [Example 6, 6-(2-amino-2-methyl-propyl)-2-[1-(cyclopropylmethyl)indol-2-yl]-1-methyl-7,8-dihydroimidazo[4,5-g]isoquinolin-5-one] | > 1000 nM | > 1000 nM |
| CC[C@@H](N)CN1CCc2cc3c(cc2C1=O)nc(-c1cc2ccccc2n1CC1CC1)n3C [Example 9, (R)-6-(2-aminobutyl)-2-(1-(cyclopropylmethyl)-1H-indol-2-yl)-1-methyl-1,6,7,8-tetrahydro-5H-imidazo[4,5-g]isoquinolin-5-one] | 501 to 1000 nM | 101 to 500 nM |
| Cn1c(-c2cc3ccccc3n2CC2CC2)nc2cc3c(cc21)CCN(C[C@H](N)C1CC1)C3=O [Example 10, (R)-6-(2-amino-2-cyclopropylethyl)-2-(1-(cyclopropylmethyl)-1H-indol-2-yl)-1-methyl-1,6,7,8-tetrahydro-5H-imidazo[4,5-g]isoquinolin-5-one] | 101 to 500 nM | 101 to 500 nM |
| CC(C)[C@@H](N)CN1CCc2cc3c(cc2C1=O)nc(-c1cc2ccccc2n1CC1CC1)n3C [Example 11, (R)-6-(2-amino-3-methylbutyl)-2-(1-(cyclopropylmethyl)-1H-indol-2-yl)-1-methyl-1,6,7,8-tetrahydro-5H-imidazo[4,5-g]isoquinolin-5-one] | > 1000 nM | > 1000 nM |
| Cn1c(-c2cc3ccccc3n2CC2CC2)nc2cc3c(cc21)CCN(C[C@H](N)CF)C3=O [Example 12, (S)-6-(2-amino-3-fluoropropyl)-2-(1-(cyclopropylmethyl)-1H-indol-2-yl)-1-methyl-1,6,7,8-tetrahydro-5H-imidazo[4,5-g]isoquinolin-5-one] | 101 to 500 nM | 101 to 500 nM |
| Cn1c(-c2cc3ccccc3n2CC2CC2)nc2cc3c(cc21)CCN(C[C@H]1COCCN1)C3=O [Example 13, (S)-2-(1-(cyclopropylmethyl)-1H-indol-2-yl)-1-methyl-6-(morpholin-3-ylmethyl)-1,6,7,8-tetrahydro-5H-imidazo[4,5-g]isoquinolin-5-one] | 101 to 500 nM | 501 to 1000 nM |
| Cn1c(-c2cc3ccccc3n2CC2CC2)nc2cc3c(cc21)CCN(C[C@H](N)C(F)F)C3=O [Example 14, (S)-6-(2-amino-3,3-difluoropropyl)-2-(1-(cyclopropylmethyl)-1H-indol-2-yl)-1-methyl-1,6,7,8-tetrahydro-5H-imidazo[4,5-g]isoquinolin-5-one] | 501 to 1000 nM | > 1000 nM |
| COc1cccc2cc(-c3nc4cc5c(cc4n3C)CCN(C[C@H](N)[C@H](C)F)C5=O)n(CC3CC3)c12 [Example 15a, 6-((2S,3S)-2-amino-3-fluorobutyl)-2-(1-(cyclopropylmethyl)-7-methoxy-1H-indol-2-yl)-1-methyl-1,6,7,8-tetrahydro-5H-imidazo[4,5-g]isoquinolin-5-one] | 101 to 500 nM | 101 to 500 nM |
| COc1cccc2cc(-c3nc4cc5c(cc4n3C)CCN(C[C@H](N)C(C)F)C5=O)n(CC3CC3)c12 (stereo partly drawn) [Example 15b, 6-((2S,3R)-2-amino-3-fluorobutyl)-2-(1-(cyclopropylmethyl)-7-methoxy-1H-indol-2-yl)-1-methyl-1,6,7,8-tetrahydro-5H-imidazo[4,5-g]isoquinolin-5-one] | 101 to 500 nM | 501 to 1000 nM |
| COc1cccc2cc(-c3nc4cc5c(cc4n3C)CCN(C[C@@H](C)N)C5=O)n(CC3CC3)c12 [Example 35, (R)-6-(2-aminopropyl)-2-(1-(cyclopropylmethyl)-7-methoxy-1H-indol-2-yl)-1-methyl-1,6,7,8-tetrahydro-5H-imidazo[4,5-g]isoquinolin-5-one] | 11 to 100 nM | 11 to 100 nM |
| Cc1cccc2cc(-c3nc4cc5c(cc4n3C)CCN(C[C@H](N)CF)C5=O)n(CC3CC3)c12 [Example 48, (S)-6-(2-amino-3-fluoropropyl)-2-(1-(cyclopropylmethyl)-7-methyl-1H-indol-2-yl)-1-methyl-1,6,7,8-tetrahydro-5H-imidazo[4,5-g]isoquinolin-5-one] | 101 to 500 nM | 101 to 500 nM |
| COc1cccc2cc(-c3nc4cc5c(cc4n3C)CCN(C[C@H](N)CF)C5=O)n(CC3CC3)c12 [Example 53, (S)-6-(2-amino-3-fluoropropyl)-2-(1-(cyclopropylmethyl)-7-methoxy-1H-indol-2-yl)-1-methyl-1,6,7,8-tetrahydro-5H-imidazo[4,5-g]isoquinolin-5-one] | 11 to 100 nM | 101 to 500 nM |
| Cc1cc(C(N)=O)c(F)cc1-c1ccc2cc(-c3nc4cc5c(cc4n3C)CCN(C[C@H](N)CF)C5=O)n(CC3CC3)c2n1 [Example 60, (S)-4-(2-(6-(2-amino-3-fluoropropyl)-1-methyl-5-oxo-5,6,7,8-tetrahydro-1H-imidazo[4,5-g]isoquinolin-2-yl)-1-(cyclopropylmethyl)-1H-pyrrolo[2,3-b]pyridin-6-yl)-2-fluoro-5-methylbenzamide] | 11 to 100 nM | 101 to 500 nM |
| Cc1cc(N2CC(C)(C)OC2=O)ccc1-c1ccc2cc(-c3nc4cc5c(cc4n3C)CCN(C[C@H]3COCCN3)C5=O)n(CC3CC3)c2n1 [Example 247, (S)-3-(4-(1-(cyclopropylmethyl)-2-(1-methyl-6-(morpholin-3-ylmethyl)-5-oxo-5,6,7,8-tetrahydro-1H-imidazo[4,5-g]isoquinolin-2-yl)-1H-pyrrolo[2,3-b]pyridin-6-yl)-3-methylphenyl)-5,5-dimethyloxazolidin-2-one] | 11 to 100 nM | – |
| Cn1c(-c2cc3ccc(-c4cccc(O)c4F)nc3n2CC2CC2)nc2cc3c(cc21)CCN(C[C@H]1COCCN1)C3=O [Example 248, (S)-2-(1-(cyclopropylmethyl)-6-(2-fluoro-3-hydroxyphenyl)-1H-pyrrolo[2,3-b]pyridin-2-yl)-1-methyl-6-(morpholin-3-ylmethyl)-1,6,7,8-tetrahydro-5H-imidazo[4,5-g]isoquinolin-5-one] | 501 to 1000 nM | – |
| COC1CCN(c2ccc3cc(-c4nc5cc6c(cc5n4C)CCN(C[C@H]4COCCN4)C6=O)n(CC4CC4)c3c2)CC1 [Example 249, (S)-2-(1-(cyclopropylmethyl)-6-(4-methoxypiperidin-1-yl)-1H-indol-2-yl)-1-methyl-6-(morpholin-3-ylmethyl)-1,6,7,8-tetrahydro-5H-imidazo[4,5-g]isoquinolin-5-one] | 501 to 1000 nM | – |
